Test results reported in patent US20140364431A1, “Quinoline and cinnoline derivatives and their applications” (Shenyang Pharmaceutical University, priority 2011, published 2014).
Values after ≈ are worked out from the molar mass of the structure shown. Structures can show the parent of a compound that is named as a salt. Each block holds one compound with its values, some of them ahead of it.

Assays:
[1] = tested on: H460 (human lung cancer cell); assay: In vitro anti-tumor cellular activity (MTT), H460; format: cell-based; conditions: MTT, 72 hours, H460; for IC50: Homo sapiens, NCI-H460, read-out: H460 IC50
[2] = tested on: U87MG (Human malignant glioblastoma cells); assay: In vitro anti-tumor cellular activity (MTT), U87MG; format: cell-based; conditions: MTT, 72 hours, U87MG; for IC50: Homo sapiens, U-87 MG, read-out: U87MG IC50
[3] = tested on: HT-29 (colon cancer cell); assay: In vitro anti-tumor cellular activity (MTT), HT-29; format: cell-based, human; conditions: MTT, 72 hours, HT-29; for IC50: Homo sapiens, read-out: HT-29 IC50
[4] = tested on: MKN-45 (human gastric carcinoma cell); assay: In vitro anti-tumor cellular activity (MTT), MKN-45; format: cell-based; conditions: MTT, 72 hours, MKN-45; for IC50: Homo sapiens, read-out: MKN-45 IC50
[5] = tested on: SMMC-7721 (hepatoma cell); assay: In vitro anti-tumor cellular activity (MTT), SMMC-7721; format: cell-based, human; conditions: MTT, 72 hours, SMMC-7721; for IC50: Homo sapiens, read-out: SMMC-7721 IC50
[6] = target: T1, c-Met (His-tagged recombinant human Met (Amino acids 974-ends)) (Homo sapiens, UniProt P08581); assay: c-Met kinase assay (ELISA); format: biochemical; conditions: 50 pM c-Met, 5 μM ATP, 20 min
T1 construct: His-tagged recombinant human Met (Amino acids 974-ends); His; host or cells: baculovirus expression
T1 sequence (P08581 974-1390 limits assumed): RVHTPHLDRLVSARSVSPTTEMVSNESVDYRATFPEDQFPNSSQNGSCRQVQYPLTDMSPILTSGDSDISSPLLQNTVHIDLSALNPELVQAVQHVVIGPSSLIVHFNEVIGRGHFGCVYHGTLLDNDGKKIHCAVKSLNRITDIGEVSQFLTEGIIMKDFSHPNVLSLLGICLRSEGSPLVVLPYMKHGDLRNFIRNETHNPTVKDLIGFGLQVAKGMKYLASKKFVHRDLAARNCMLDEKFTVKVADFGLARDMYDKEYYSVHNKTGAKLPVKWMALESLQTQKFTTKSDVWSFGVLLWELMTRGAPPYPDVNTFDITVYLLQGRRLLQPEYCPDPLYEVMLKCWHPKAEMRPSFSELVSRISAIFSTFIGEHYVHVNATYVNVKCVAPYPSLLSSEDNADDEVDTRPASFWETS
Description: c-Met kinase activity was measured with an ELISA reader.
The reaction mixture was removed by washing with 0.2 μg/mL conjugated horseradish peroxidase (HRP) monoclonal antibody specific for phosphotyrosine (PY20) detecting phosphorylation of the substrate polymer. 1M phosphoric acid was added to terminate the color, the chromogenic substrate (TMB) was tested by spectrophotometry at 450 nm.

Compound: COc1cc2c(Oc3ccc(NC(=O)c4cn(-c5ccccc5F)c5ccccc5c4=O)cc3F)ccnc2cc1OCCCN1CCCC1 [Example 51, N-(3-fluoro-4-((6-methoxy-7-(3-(pyrrolidin-1-yl)propoxy)quinolin-4-yl)oxy)phenyl)-1-(2-fluorophenyl)-4-oxo-1,4-dihydroquinoline-3-carboxamide]
IC50 [1]: 0.58 µg/mL (≈ 0.857 µM)
IC50 [2]: 0.28 µg/mL (≈ 0.414 µM)
IC50 [3]: 0.41 µg/mL (≈ 0.606 µM)
IC50 [4]: 0.24 µg/mL (≈ 0.355 µM)
IC50 [5]: 0.53 µg/mL (≈ 0.783 µM)
IC50 [6]: 296 nM

Compound: N-(3-fluoro-4-((6-methoxy-7-(3-(pyrrolidin-1-yl)propoxy)quinolin-4-yl)oxy)phenyl)-1-(2-c hlorophenyl)-4-oxo-1,4-dihydrocinnoline-3-carboxamide dihydrochloride [Example 16]
H460 IC50 [1]: 0.69 µg/mL
U87MG IC50 [2]: 0.2 µg/mL
HT-29 IC50 [3]: 0.57 µg/mL
MKN-45 IC50 [4]: 1.1 µg/mL
SMMC-7721 IC50 [5]: 0.45 µg/mL
c-Met IC50 [6]: 0.9 µg/mL

Compound: COc1cc2c(Oc3ccc(NC(=O)c4cn(-c5ccccc5Cl)c5ccccc5c4=O)cc3F)ccnc2cc1OCCCN1CCCCC1 [Example 53, N-(3-fluoro-4-((6-methoxy-7-(3-(piperidin-1-yl)propoxy)quinolin-4-yl)oxy)phenyl)-1-(2-chlorophenyl)-4-oxo-1,4-dihydroquinoline-3-carboxamide]
IC50 [1]: 0.79 µg/mL (≈ 1.12 µM)
IC50 [2]: 0.21 µg/mL (≈ 0.297 µM)
IC50 [3]: 0.93 µg/mL (≈ 1.32 µM)
IC50 [4]: 0.47 µg/mL (≈ 0.665 µM)
IC50 [5]: 0.29 µg/mL (≈ 0.41 µM)
IC50 [6]: 707 nM

Results, then the compound that gave them:

IC50 [1]: 1.1 µg/mL (≈ 1.59 µM)
IC50 [2]: 1.5 µg/mL (≈ 2.16 µM)
IC50 [3]: 0.7 µg/mL (≈ 1.01 µM)
IC50 [4]: 1.3 µg/mL (≈ 1.87 µM)
IC50 [5]: 0.87 µg/mL (≈ 1.25 µM)
IC50 [6]: 966 nM
Compound: COc1cc2c(Oc3ccc(NC(=O)c4nn(-c5ccc(F)cc5)c5ccccc5c4=O)cc3F)ccnc2cc1OCCCN1CCOCC1 [Example 36, N-(3-fluoro-4-((6-methoxy-7-(3-(morpholin-4-yl)propoxy)quinolin-4-yl)oxy)phenyl)-1-(4-fluorophenyl)-4-oxo-1,4-dihydrocinnoline-3-carboxamide]

IC50 [1]: 2.3 µg/mL (≈ 3.25 µM)
IC50 [2]: 1.8 µg/mL (≈ 2.54 µM)
IC50 [3]: 2.1 µg/mL (≈ 2.97 µM)
IC50 [4]: 2.6 µg/mL (≈ 3.67 µM)
IC50 [5]: 1.3 µg/mL (≈ 1.84 µM)
IC50 [6]: 1550 nM
Compound: COc1cc2c(Oc3ccc(NC(=O)c4nn(-c5ccc(F)cc5)c5ccccc5c4=O)cc3F)cnnc2cc1OCCCN1CCN(C)CC1 [Example 69, N-(3-fluoro-4-((6-methoxy-7-(3-(4-methylpiperazin-1-yl)propoxy)cinnolin-4-yl)oxy)phenyl)-1-(4-fluorophenyl)-4-oxo-1,4-dihydrocinnoline-3-carboxamide]

IC50 [1]: 0.89 µg/mL (≈ 1.25 µM)
IC50 [2]: 2.1 µg/mL (≈ 2.95 µM)
IC50 [3]: 1.4 µg/mL (≈ 1.97 µM)
IC50 [4]: 2.4 µg/mL (≈ 3.37 µM)
IC50 [5]: 1.7 µg/mL (≈ 2.39 µM)
IC50 [6]: 562 nM
Compound: COc1cc2c(Oc3ccc(NC(=O)c4nn(-c5ccc(Cl)cc5)c5ccccc5c4=O)cc3F)cnnc2cc1OCCCN1CCOCC1 [Example 66, N-(3-fluoro-4-((6-methoxy-7-(3-(morpholin-4-yl)propoxy)cinnolin-4-yl)oxy)phenyl)-1-(4-chlorophenyl)-4-oxo-1,4-dihydrocinnoline-3-carboxamide]

IC50 [1]: 0.98 µg/mL
IC50 [2]: 0.72 µg/mL
IC50 [3]: 1.5 µg/mL
IC50 [4]: 0.67 µg/mL
IC50 [5]: 1.3 µg/mL
IC50 [6]: 1130 nM
Compound: COc1cc2c(Oc3ccc(NC(=O)c4cn(-c5ccc(F)cc5)c5ccccc5c4=O)cc3F)ccnc2cc1OCCCN1CCN(C)CC1 [Example 46, N-(3-fluoro-4-((6-methoxy-7-(3-(4-methyl-piperazin-1-yl)propoxy)quinolin-4-yl)oxy)phenyl)-4-oxo-1-(4-fluorophenyl)-1,4-dihydroquinoline-3-carboxamide dihydrochloride]

IC50 [1]: 0.06 µg/mL (≈ 0.0845 µM)
IC50 [2]: 3.5 µg/mL (≈ 4.93 µM)
IC50 [3]: 0.38 µg/mL (≈ 0.535 µM)
IC50 [4]: 0.12 µg/mL (≈ 0.169 µM)
IC50 [5]: 0.63 µg/mL (≈ 0.888 µM)
IC50 [6]: 42.3 nM
Compound: COc1cc2c(Oc3ccc(NC(=O)c4nn(-c5ccc(F)c(F)c5)c5ccccc5c4=O)cc3F)ccnc2cc1OCCCN1CCCCC1 [Example 11, N-(3-fluoro-4-((6-methoxy-7-(3-(piperidin-1-yl)propoxy)quinolin-4-yl)oxy)phenyl)-1-(3,4-difluorophenyl)-4-oxo-1,4-dihydrocinnoline-3-carboxamide]
